Measured values as given in patent US9402398B2, “Herbicidal compounds” (SYNGENTA PARTICIPATIONS AG, priority 2012, dated 2016).

Columns and labels:
Format in all cases: in vivo
[1] = system: Alopecurus myosuroides (ALOMY); assay: Herbicidal glasshouse test, post-emergence; conditions: post-emergence (sprayed after 8 days cultivation), 1000 g/h, evaluated after 13 days
Experimental: (§1) Seeds of a variety of test species are sown in standard soil in pots (Alopecurus myosuroides (ALOMY), Setaria faberi (SETFA), Echinochloa crus-galli (ECHCG), Solanum nigrum (SOLNI), Amaranthus retoflexus (AMARE), Ipomoea hederacea (IPOHE)). After cultivation for one day (pre-emergence) or after 8 days cultivation (post-emergence) under controlled conditions in a glasshouse (at 24/16° C., day/night; 14 hours light; 65% humidity), the plants are sprayed with an aqueous spray solution derived from the formulation of the technical active ingredient in acetone/water (50:50) solution containing 0.5% Tween 20 (polyoxyethelyene sorbitan monolaurate, CAS RN 9005-64-5). Compounds are applied at 1000 g/h. The test plants are then grown in a glasshouse under controlled conditions in a glasshouse (at 24/16° C., day/night; 14 hours light; 65% humidity) and watered twice daily. After 13 days for pre and post-emergence, the test is evaluated for the percentage damage caused to the plant. The biological activities are shown in the following table on a five point scale (5=80-100%; 4=60-79%; 3=40-59%; 2=20-39%; 1=0-19%).

[2] = system: Amaranthus retoflexus (AMARE); assay: Herbicidal glasshouse test, post-emergence; conditions: post-emergence (sprayed after 8 days cultivation), 1000 g/h, evaluated after 13 days
Experimental: as §1

[3] = system: Echinochloa crus-galli (ECHCG); assay: Herbicidal glasshouse test, post-emergence; conditions: post-emergence (sprayed after 8 days cultivation), 1000 g/h, evaluated after 13 days
Experimental: as §1

[4] = system: Ipomoea hederacea (IPOHE); assay: Herbicidal glasshouse test, post-emergence; conditions: post-emergence (sprayed after 8 days cultivation), 1000 g/h, evaluated after 13 days
Experimental: as §1

[5] = system: Setaria faberi (SETFA); assay: Herbicidal glasshouse test, post-emergence; conditions: post-emergence (sprayed after 8 days cultivation), 1000 g/h, evaluated after 13 days
Experimental: as §1

[6] = system: Solanum nigrum (SOLNI); assay: Herbicidal glasshouse test, post-emergence; conditions: post-emergence (sprayed after 8 days cultivation), 1000 g/h, evaluated after 13 days
Experimental: as §1

[7] = system: Alopecurus myosuroides (ALOMY); assay: Herbicidal glasshouse test, pre-emergence; conditions: pre-emergence (sprayed after cultivation for one day), 1000 g/h, evaluated after 13 days
Experimental: as §1

[8] = system: Amaranthus retoflexus (AMARE); assay: Herbicidal glasshouse test, pre-emergence; conditions: pre-emergence (sprayed after cultivation for one day), 1000 g/h, evaluated after 13 days
Experimental: as §1

[9] = system: Echinochloa crus-galli (ECHCG); assay: Herbicidal glasshouse test, pre-emergence; conditions: pre-emergence (sprayed after cultivation for one day), 1000 g/h, evaluated after 13 days
Experimental: as §1

[10] = system: Ipomoea hederacea (IPOHE); assay: Herbicidal glasshouse test, pre-emergence; conditions: pre-emergence (sprayed after cultivation for one day), 1000 g/h, evaluated after 13 days
Experimental: as §1

[11] = system: Setaria faberi (SETFA); assay: Herbicidal glasshouse test, pre-emergence; conditions: pre-emergence (sprayed after cultivation for one day), 1000 g/h, evaluated after 13 days
Experimental: as §1

[12] = system: Solanum nigrum (SOLNI); assay: Herbicidal glasshouse test, pre-emergence; conditions: pre-emergence (sprayed after cultivation for one day), 1000 g/h, evaluated after 13 days
Experimental: as §1

Compound	percentage damage caused to the plant, five point scale, POST Application ALOMY [1]	percentage damage caused to the plant, five point scale, POST Application AMARE [2]	percentage damage caused to the plant, five point scale, POST Application ECHCG [3]	percentage damage caused to the plant, five point scale, POST Application IPOHE [4]	percentage damage caused to the plant, five point scale, POST Application SETFA [5]	percentage damage caused to the plant, five point scale, POST Application SOLNI [6]	percentage damage caused to the plant, five point scale, PRE Application ALOMY [7]	percentage damage caused to the plant, five point scale, PRE Application AMARE [8]	percentage damage caused to the plant, five point scale, PRE Application ECHCG [9]	percentage damage caused to the plant, five point scale, PRE Application IPOHE [10]	percentage damage caused to the plant, five point scale, PRE Application SETFA [11]	percentage damage caused to the plant, five point scale, PRE Application SOLNI [12]
CCOc1ccc(-n2nc(C)cc(C(=O)Nc3nnnn3C)c2=O)cc1 [Compound 1.010]	5 (5=80-100%)	5 (5=80-100%)	5 (5=80-100%)	5 (5=80-100%)	5 (5=80-100%)	5 (5=80-100%)	5 (5=80-100%)	5 (5=80-100%)	5 (5=80-100%)	4 (4=60-79%)	5 (5=80-100%)	5 (5=80-100%)
Cc1cc(C(=O)Nc2nnnn2C)c(=O)n(-c2ccccc2)n1 [Compound 1.001]	5 (5=80-100%)	4 (4=60-79%)	5 (5=80-100%)	4 (4=60-79%)	3 (3=40-59%)	5 (5=80-100%)	5 (5=80-100%)	5 (5=80-100%)	4 (4=60-79%)	3 (3=40-59%)	3 (3=40-59%)	5 (5=80-100%)
Cc1cc(C(=O)Nc2nnnn2C)c(=O)n(-c2cc(Cl)cc(Cl)c2)n1 [Compound 1.005]	5 (5=80-100%)	5 (5=80-100%)	5 (5=80-100%)	5 (5=80-100%)	5 (5=80-100%)	5 (5=80-100%)	5 (5=80-100%)	5 (5=80-100%)	5 (5=80-100%)	5 (5=80-100%)	5 (5=80-100%)	5 (5=80-100%)
Cc1cc(C(=O)Nc2nnnn2C)c(=O)n(-c2ccc(Br)cc2)n1 [Compound 1.006]	5 (5=80-100%)	5 (5=80-100%)	5 (5=80-100%)	4 (4=60-79%)	5 (5=80-100%)	5 (5=80-100%)	5 (5=80-100%)	5 (5=80-100%)	5 (5=80-100%)	4 (4=60-79%)	5 (5=80-100%)	5 (5=80-100%)
COCCn1nc(C)cc(C(=O)Nc2nnnn2C)c1=O [Compound 1.017]	5 (5=80-100%)	5 (5=80-100%)	5 (5=80-100%)	5 (5=80-100%)	5 (5=80-100%)	5 (5=80-100%)	5 (5=80-100%)	5 (5=80-100%)	5 (5=80-100%)	5 (5=80-100%)	5 (5=80-100%)	5 (5=80-100%)
C=Cc1ccc(-n2nc(C)cc(C(=O)Nc3nnnn3C)c2=O)cc1 [Compound 1.008]	5 (5=80-100%)	5 (5=80-100%)	5 (5=80-100%)	5 (5=80-100%)	5 (5=80-100%)	5 (5=80-100%)	5 (5=80-100%)	5 (5=80-100%)	4 (4=60-79%)	2 (2=20-39%)	5 (5=80-100%)	5 (5=80-100%)
Cc1cc(C(=O)Nc2nnnn2C)c(=O)n(Cc2cccc(F)c2)n1 [Compound 1.016]	4 (4=60-79%)	5 (5=80-100%)	4 (4=60-79%)	3 (3=40-59%)	1 (1=0-19%)	5 (5=80-100%)	2 (2=20-39%)	5 (5=80-100%)	4 (4=60-79%)	4 (4=60-79%)	5 (5=80-100%)	5 (5=80-100%)
Cc1cc(C(=O)Nc2nnnn2C)c(=O)n(-c2cccc(Br)c2)n1 [Compound 1.007]	5 (5=80-100%)	5 (5=80-100%)	5 (5=80-100%)	5 (5=80-100%)	5 (5=80-100%)	5 (5=80-100%)	5 (5=80-100%)	5 (5=80-100%)	5 (5=80-100%)	3 (3=40-59%)	5 (5=80-100%)	5 (5=80-100%)
